Results reported in patent US20230113037A1 (Bayer Aktiengesellschaft, priority 2019, published 2023).

Key:
AHR [1] = molecular target: T1, AHR (Mus musculus, UniProt P30561); assay: In vitro assay 3: antagonism in mouse cell line (AHR transactivation, firefly luciferase reporter, kynurenic acid prestimulated); type: cell-based; conditions: mouse Hepa 1c1c7 cells, 200 μM kynurenic acid, 20 hours, read-out: AHR Antagonism Mouse IC50
T1 sequence (P30561 1-848 P471L/N533S/M589L): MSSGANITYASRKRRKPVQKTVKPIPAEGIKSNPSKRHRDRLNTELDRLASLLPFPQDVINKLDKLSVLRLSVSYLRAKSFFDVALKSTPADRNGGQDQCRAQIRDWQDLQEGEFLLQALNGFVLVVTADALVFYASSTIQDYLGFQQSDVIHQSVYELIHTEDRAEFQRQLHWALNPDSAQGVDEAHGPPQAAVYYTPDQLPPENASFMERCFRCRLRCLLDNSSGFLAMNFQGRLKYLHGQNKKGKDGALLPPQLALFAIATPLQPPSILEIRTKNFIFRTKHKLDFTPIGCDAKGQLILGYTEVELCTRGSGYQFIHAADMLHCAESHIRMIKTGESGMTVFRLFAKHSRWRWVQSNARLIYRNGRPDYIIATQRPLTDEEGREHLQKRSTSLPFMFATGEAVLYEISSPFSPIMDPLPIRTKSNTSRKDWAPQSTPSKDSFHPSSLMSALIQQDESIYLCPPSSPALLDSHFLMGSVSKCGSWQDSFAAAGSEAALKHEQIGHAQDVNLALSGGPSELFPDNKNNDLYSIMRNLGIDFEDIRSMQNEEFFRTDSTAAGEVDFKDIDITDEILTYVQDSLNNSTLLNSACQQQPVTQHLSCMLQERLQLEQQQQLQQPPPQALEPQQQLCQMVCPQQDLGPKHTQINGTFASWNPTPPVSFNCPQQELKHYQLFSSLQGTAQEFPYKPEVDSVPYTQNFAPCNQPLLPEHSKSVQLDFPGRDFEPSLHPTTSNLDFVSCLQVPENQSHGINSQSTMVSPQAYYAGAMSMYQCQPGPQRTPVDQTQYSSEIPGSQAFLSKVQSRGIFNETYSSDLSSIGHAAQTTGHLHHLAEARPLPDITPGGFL
Outline: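 Antagonism read as reduced firefly luciferase signal (SteadyGlo) from a stably transfected AHR/DRE reporter in a mouse line prestimulated with kynurenic acid. Data normalized to controls, the full-inhibition control being cells without kynurenic acid; multiple determinations given as average or median values.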

AHR [2] = molecular target: T2, AHR (Homo sapiens, UniProt P35869); assay: In vitro assay 1: antagonism in human cell line (AHR transactivation, firefly luciferase reporter, kynurenic acid prestimulated); type: cell-based; conditions: AHR Antagonism Human IC50 [M]
T2 construct: U87 MG glioblastoma cells (ATCC #HTB-14) endogenously expressing AHR; endogenous in cells; host or cells: U87 MG glioblastoma cells (ATCC #HTB-14)
T2 sequence (P35869 11-848): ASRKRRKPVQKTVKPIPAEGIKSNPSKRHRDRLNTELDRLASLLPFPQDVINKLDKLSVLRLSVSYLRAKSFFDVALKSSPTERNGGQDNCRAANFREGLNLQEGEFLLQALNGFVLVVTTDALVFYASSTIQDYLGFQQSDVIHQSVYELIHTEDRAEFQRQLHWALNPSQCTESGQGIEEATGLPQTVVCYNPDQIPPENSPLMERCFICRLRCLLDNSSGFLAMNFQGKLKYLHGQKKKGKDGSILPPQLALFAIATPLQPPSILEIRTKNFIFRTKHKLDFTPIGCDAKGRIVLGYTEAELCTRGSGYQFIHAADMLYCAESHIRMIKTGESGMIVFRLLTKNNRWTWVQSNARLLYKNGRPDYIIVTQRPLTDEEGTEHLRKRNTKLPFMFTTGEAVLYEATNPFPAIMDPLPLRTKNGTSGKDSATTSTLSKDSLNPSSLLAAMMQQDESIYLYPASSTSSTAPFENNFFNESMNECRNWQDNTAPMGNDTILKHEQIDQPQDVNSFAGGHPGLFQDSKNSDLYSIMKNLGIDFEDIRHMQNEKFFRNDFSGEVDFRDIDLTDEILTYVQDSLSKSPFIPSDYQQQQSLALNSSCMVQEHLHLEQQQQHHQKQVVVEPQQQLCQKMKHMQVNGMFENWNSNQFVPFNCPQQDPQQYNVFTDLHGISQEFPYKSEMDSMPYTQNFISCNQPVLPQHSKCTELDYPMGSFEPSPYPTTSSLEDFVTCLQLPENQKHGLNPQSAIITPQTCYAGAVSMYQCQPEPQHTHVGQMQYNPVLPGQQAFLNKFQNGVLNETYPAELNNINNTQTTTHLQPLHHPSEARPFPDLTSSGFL
Outline: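 Antagonism measured as loss of kynurenic acid-driven firefly luciferase from DRE reporter in stably transfected U87 MG cells; constitutive Renilla signal monitors cytotoxicity. Positive/negative control normalization, staurosporine 5 μM with 150 μM kynurenic acid as inhibition control; replicates given as mean or median.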

SMILES	IC50 (AHR [1])	IC50 (AHR [2])
COc1cccc(-c2nc3c4ccc(F)cc4nc(N[C@@H]4CCCCNC4=O)n3n2)c1 [Example 148, (3R)-3-{[8-fluoro-2-(3-methoxyphenyl)[1,2,4]triazolo[1,5-c]quinazolin-5-yl]amino}azepan-2-one]	2.41 nM	8.12e-07 M
COc1cccc(-c2nc3c4ccc(F)cc4nc(N[C@H]4CCCCNC4=O)n3n2)c1 [Example 150, (3S)-3-{[8-fluoro-2-(3-methoxyphenyl)[1,2,4]triazolo[1,5-c]quinazolin-5-yl]amino}azepan-2-one]	48.8 nM	1.97e-07 M
COc1cccc(-c2nc3c4ccc(F)cc4nc(N[C@H]4CCCNC4=O)n3n2)c1 [Example 151, (3S)-3-{[8-fluoro-2-(3-methoxyphenyl)[1,2,4]triazolo[1,5-c]quinazolin-5-yl]amino}piperidin-2-one]	343 nM	2.36e-06 M
COc1cccc(-c2nc3c4ccc(F)cc4nc(N[C@@H]4CCNC4=O)n3n2)c1 [Example 152, (3R)-3-{[8-fluoro-2-(3-methoxyphenyl)[1,2,4]triazolo[1,5-c]quinazolin-5-yl]amino}pyrrolidin-2-one]	353 nM	5.28e-08 M
Cc1ccc2nc(N[C@@H]3CCCCNC3=O)n3nc(-c4cnn(C)c4)nc3c2c1 [Example 158, (3R)-3-{[9-methyl-2-(1-methyl-1H-pyrazol-4-yl)[1,2,4]triazolo[1,5-c]quinazolin-5-yl]amino}azepan-2-one]	32.2 nM	1.77e-08 M
COc1cccc(-c2nc3c4cc(F)ccc4nc(NC4CCNC4=O)n3n2)c1 (stereo not drawn) [Example 162, 3-{[9-fluoro-2-(3-methoxyphenyl)[1,2,4]triazolo[1,5-c]quinazolin-5-yl]amino}pyrrolidin-2-one]	25.5 nM	2.23e-08 M

Continued, values first:

IC50 (AHR [1])	IC50 (AHR [2])	SMILES
1.08 nM	1.09e-09 M	COc1cccc(-c2nc3c4cccc(C)c4nc(N[C@@H]4CCCCNC4=O)n3n2)c1 [Example 140, (3R)-3-{[2-(3-methoxyphenyl)-7-methyl[1,2,4]triazolo[1,5-c]quinazolin-5-yl]amino}azepan-2-one]
83.2 nM	2.84e-08 M	COc1cccc(-c2nc3c4cccc(C)c4nc(N[C@H]4CCCCNC4=O)n3n2)c1 [Example 141]
21.1 nM	2.15e-09 M	Cc1cccc2c1nc(N[C@@H]1CCCCNC1=O)n1nc(-c3cnn(C)c3)nc21 [Example 142, (3R)-3-{[7-methyl-2-(1-methyl-1H-pyrazol-4-yl)[1,2,4]triazolo[1,5-c]quinazolin-5-yl]amino}azepan-2-one]
0.884 nM	2.42e-10 M	COc1ccc(-c2nc3c4cccc(C)c4nc(N[C@@H]4CCCCNC4=O)n3n2)cc1 [Example 143]
62.7 nM	> 2e-06 M	COc1ccc(-c2nc3c4cccc(C)c4nc(N[C@H]4CCCCNC4=O)n3n2)cc1 [Example 144]
1.18 nM	4.35e-10 M	COc1ccc(-c2nc3c4ccc(F)cc4nc(N[C@@H]4CCCCNC4=O)n3n2)cc1 [Example 153, (3R)-3-{[8-fluoro-2-(4-methoxyphenyl)[1,2,4]triazolo[1,5-c]quinazolin-5-yl]amino}azepan-2-one]
1.16 nM	2.18e-09 M	COc1cccc(-c2nc3c4cc(C)ccc4nc(N[C@@H]4CCCCNC4=O)n3n2)c1 [Example 154, (3R)-3-{[2-(3-methoxyphenyl)-9-methyl[1,2,4]triazolo[1,5-c]quinazolin-5-yl]amino}azepan-2-one]
0.227 nM	1.03e-09 M	COc1cccc(-c2nc3c4cc(F)ccc4nc(N[C@@H]4CCCCNC4=O)n3n2)c1 [Example 159, (3R)-3-{[9-fluoro-2-(3-methoxyphenyl)[1,2,4]triazolo[1,5-c]quinazolin-5-yl]amino}azepan-2-one]
15.4 nM	1.43e-07 M	COc1cccc(-c2nc3c4cc(F)ccc4nc(N[C@H]4CCCCNC4=O)n3n2)c1 [Example 160, (3S)-3-{[9-fluoro-2-(3-methoxyphenyl)[1,2,4]triazolo[1,5-c]quinazolin-5-yl]amino}azepan-2-one]
